{"source": "patent US12329765B2", "about": "“Targeted nanoparticle for the treatment of traumatic brain injury and other CNS diseases” (priority 2021, dated 2025)", "key": {"[1]": {"settings": "in vivo; cited from earlier work"}, "[2]": {"settings": "rat models; cited from earlier work"}, "[3]": {"test": "In vivo toxicity: gross observable behavioral effects (Irwin)", "design": "species or system rat", "settings": "35 days"}, "[4]": {"test": "Minocycline forced degradation (acid, base, H2O2, light) by HPLC", "type": "physicochemical", "excerpt": "Measuring the drug molecule's stability is essential as it directly impacts the formulation strategy when designing the drug-loaded nanoparticle."}, "[5]": {"settings": "35 day observation", "method": "Before treatment, body weight was determined for all the animals. During the course of observation period of 35 days, the animals were followed up twice daily for symptoms of any adverse effect and were physically examined for the sign of morbidity throughout the study period.\nOn day 0, 15 and 35, all the animals were weighed, and their weights were recorded."}}, "data": [{"smiles": "C[C@H]1C[C@H]2[C@@H]3CCC4=CC(=O)C=C[C@]4(C)[C@@]3(F)[C@@H](O)C[C@]2(C)[C@@]1(O)C(=O)COP(=O)(O)O", "note": "[free betamethasone phosphate, betamethasone phosphate]", "values": [{"measurement": "time to disappearance from the cochlea", "setting": "[1]", "value": "≤ 12", "unit": "h"}]}, {"smiles": "CN(C)c1ccc(O)c2c1C[C@H]1C[C@H]3[C@H](N(C)C)C(O)=C(C(N)=O)C(=O)[C@@]3(O)C(O)=C1C2=O", "note": "[minocycline, Minocycline]", "values": [{"measurement": "half-life", "setting": "[2]", "value": "2 to 3", "unit": "h"}, {"measurement": "gross observable behavioral parameters (alertness, visual placing, passivity, spontaneous motor activity, touch response)", "setting": "[3]", "value": "mild changes in a few behavioral parameters"}, {"measurement": "recovery at 1 h, 100 μg/mL", "setting": "[4]; 1 M HCl solution, HCl (1 M, 1 h RT)", "value": 88.9, "unit": "%"}, {"measurement": "recovery at 1 h, 100 μg/mL", "setting": "[4]; 1 M NaOH solution, NaOH (1 M, 1 h RT)", "value": 74, "unit": "%"}, {"measurement": "recovery at 24 h, 100 μg/mL", "setting": "[4]; UV Light (24 h light exposure)", "value": "98.54 ± 0.71", "unit": "%"}, {"measurement": "body weight versus saline treated control group", "setting": "[5]", "value": "no reduction in body weight"}]}]}
